Here are results for 38 compounds from patent US8653099B2, “Cold menthol receptor antagonists” (Janssen Pharmaceutica, priority 2008, dated 2014).

Where “and” joins values, the source holds several entries; their conditions need not be identical. Equal entries are not always repeated.

The test deals with T1, canine TRPM8 (Canis lupus familiaris, UniProt Q1A7N1).
T1 construct: expressed in transfected cells
Nature of the test: In vitro canine TRPM8 functional assay (icilin-induced Ca2+ fluorescence, FLIPR/FDSS). The test is classed as cell-based. The conditions noted are these: for inhibition at 0.5 µM: HEK293, 0.5 μM compound; for IC50: HEK293 cells stably expressing canine TRPM8, icilin at approx. 80% maximal response, eight-point dose-response; for inhibition at 1 µM: HEK293, 1 μM compound; for inhibition at 0.2 µM: HEK293, 0.2 μM compound. As to the method:
The functional activity of compounds of the formula (I) was determined by measuring changes in intracellular calcium concentration using a Ca^2+-sensitive fluorescent dye. The changes in fluorescent signal were monitored by a fluorescence plate reader, either a FLIPR™ (Molecular Devices) or FDSS (Hamamatsu).
HEK293 cells stably expressing canine TRPM8 were routinely grown as monolayers in Dulbecco's minimum essential medium supplemented with 10% FBS, 2 mM L-glutamine, 100 units/mL penicillin, 100 ug/mL streptomycin and 400 μg/mL G418. Cells were maintained in 5% CO2 at 37° C. At 24 hrs prior to assay, cells were seeded in black wall, clear-base poly-D-lysine coated 384-well plates (BD Biosciences, NJ, USA) at a density of 5,000 cells per well in culture medium and grown overnight in 5% CO2 at 37° C. On assay day, growth media was removed and cells were loaded with Calcium 3 Dye (Molecular Devices) for 35 min at 37° C., under 5% CO2 and then for 25 min at room temperature and atmosphere. Subsequently, cells were tested for agonist-induced increases in intracellular Ca^2+ levels using FLIPR™ or FDSS. Cells were challenged with compounds of the formula (I) (at varying concentrations) and intracellular Ca^2+ was measured for 5 min prior to the addition of icilin to all wells to achieve a final concentration that produces approximately an 80% maximal response.
Maximal fluorescence intensity (FI) achieved upon addition of icilin was exported from the FLIPR or FDSS software and further analyzed using GraphPad Prism 3.02 (Graph Pad Software Inc., CA, U.S.A.). Basal FI was subtracted prior to normalizing data to percent of maximal response. Curves were generated using the average of quadruplicate wells for each data point, were analyzed using nonlinear regression of either sigmoidal dose response or sigmoidal dose response (variable slope). Finally, the EC50 and IC50 values were calculated with the best-fit dose curve determined by GraphPad Prism.

[1] abbreviates: HEK293 canine TRPM8, icilin challenge.

T1 sequence (Q1A7N1 1-1104): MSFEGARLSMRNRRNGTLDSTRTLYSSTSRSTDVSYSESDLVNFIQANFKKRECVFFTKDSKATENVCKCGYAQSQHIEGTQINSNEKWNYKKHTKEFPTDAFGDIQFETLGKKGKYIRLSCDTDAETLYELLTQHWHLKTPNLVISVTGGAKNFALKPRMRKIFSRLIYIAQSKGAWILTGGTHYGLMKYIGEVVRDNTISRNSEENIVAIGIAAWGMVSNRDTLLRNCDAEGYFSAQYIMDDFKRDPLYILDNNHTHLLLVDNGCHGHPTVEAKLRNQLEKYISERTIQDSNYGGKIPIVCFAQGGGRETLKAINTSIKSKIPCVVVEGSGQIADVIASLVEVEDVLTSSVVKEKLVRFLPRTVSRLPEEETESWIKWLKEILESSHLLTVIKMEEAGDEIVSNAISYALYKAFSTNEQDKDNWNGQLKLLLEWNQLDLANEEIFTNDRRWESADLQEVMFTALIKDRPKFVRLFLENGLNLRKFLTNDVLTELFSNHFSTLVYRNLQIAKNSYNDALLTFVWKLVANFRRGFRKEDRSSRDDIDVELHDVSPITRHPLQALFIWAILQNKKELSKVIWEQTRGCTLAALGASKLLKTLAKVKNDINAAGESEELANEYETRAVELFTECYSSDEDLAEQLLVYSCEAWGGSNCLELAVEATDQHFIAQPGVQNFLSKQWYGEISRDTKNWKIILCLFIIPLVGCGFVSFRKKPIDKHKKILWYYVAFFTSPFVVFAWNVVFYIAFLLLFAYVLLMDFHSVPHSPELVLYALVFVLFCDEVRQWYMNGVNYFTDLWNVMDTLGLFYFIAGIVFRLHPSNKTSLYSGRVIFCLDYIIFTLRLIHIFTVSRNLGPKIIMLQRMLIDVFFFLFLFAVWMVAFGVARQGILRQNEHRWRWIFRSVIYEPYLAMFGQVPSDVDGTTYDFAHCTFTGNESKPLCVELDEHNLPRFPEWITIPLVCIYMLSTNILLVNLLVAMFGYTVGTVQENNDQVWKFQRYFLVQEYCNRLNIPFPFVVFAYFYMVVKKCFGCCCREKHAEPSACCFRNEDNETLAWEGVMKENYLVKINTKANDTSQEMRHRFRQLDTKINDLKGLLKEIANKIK

`O=C(Nc1cccc2cnccc12)C(Nc1ccccc1)c1ccc(C(F)(F)F)cc1` (single isomer, unassigned) [Cpd 30, N-Isoquinolin-5-yl-2-phenylamino-2-(4-trifluoromethyl-phenyl)-acetamide]: inhibition was half-maximal at 257 nM (IC50). Besides, the inhibition at 0.5 µM under setting [1] was found to be 96%.
In turn, `O=C(Nc1cccc2cnccc12)C(Nc1ccccc1)c1ccc(C(F)(F)F)cc1` (single isomer, unassigned) [Cpd 31, N-Isoquinolin-5-yl-2-phenylamino-2-(4-trifluoromethyl-phenyl)-acetamide] came in with an IC50 of 17 nM. For the setting “0.5 μM compound, HEK293 canine TRPM8, icilin challenge, 0.5 µM”, the “% Inh @ 0.5 μM” value came to 102.16%.
In the case of `CC(C)(C)c1ccc(C(Nc2ccccc2)C(=O)Nc2cccc3cnccc23)cc1` (stereo not shown) [Cpd 1], it took 35.8 nM to reach half-maximal inhibition (IC50). Further, under setting [1], the inhibition at 1 µM worked out at 103%.
For `CN(c1ccccc1)C(C(=O)Nc1cccc2cnccc12)c1ccc(C(C)(C)C)cc1` (stereo not shown) [Cpd 3] the same measures were 301 nM and 101%.
As to `O=C(Nc1cccc2cnccc12)C(Nc1ccccc1)c1ccc(C(F)(F)F)cc1` (stereo not shown) [Cpd 4, N-Isoquinolin-5-yl-2-phenylamino-2-(4-trifluoromethyl-phenyl)-acetamide], the IC50 was 72 nM and 28.9 nM. Besides, under setting [1], the inhibition at 0.5 µM worked out at 104% and the inhibition at 1 µM came out at 102%.
The compound `CC(C)(C)c1ccc(C(Nc2ccccc2)C(=O)Nc2cccc3[nH]ncc23)cc1` (stereo not shown) [Cpd 5] displayed an IC50 of 118 nM. In addition, under setting [1], the inhibition at 1 µM stood at 100%.
For `CC(C)(C)c1ccc(C(Nc2ccccc2)C(=O)Nc2cccc3[nH]ccc23)cc1` (stereo not shown) [Cpd 7] the same measures were 529 nM and 100%.
Compound `CC(C)(C)c1ccc(C(Nc2ccccc2)C(=O)Nc2ccc3cnccc3c2)cc1` (stereo not shown) [Cpd 8] returned an IC50 of 438 nM. Also, under setting [1], the inhibition at 1 µM stood at 97.5%.
The matching figures for `O=C(NC1CCc2ccccc21)C(Nc1ccccc1)c1ccc(C(F)(F)F)cc1` (stereo not shown) [Cpd 10, N-Indan-1-yl-2-phenylamino-2-(4-trifluoromethyl-phenyl)-acetamide]: 158 nM and 100%.
In the case of `O=C(Nc1cccc2cnccc12)C(Nc1ccccc1Cl)c1ccc(C(F)(F)F)cc1` (stereo not shown) [Cpd 11], the IC50 is 89.1 nM. Moreover, under setting [1], the inhibition at 0.5 µM was determined as 104%.
On to `O=C(Nc1cccc2cnccc12)C(Nc1cccc(Cl)c1)c1ccc(C(F)(F)F)cc1` (stereo not shown) [Cpd 12], for which the IC50 was 261 nM. The inhibition at 0.5 µM under setting [1] was determined as 101%.
For `O=C(Nc1cccc2cnccc12)C(Nc1ccc(Cl)cc1)c1ccc(C(F)(F)F)cc1` (stereo not shown) [Cpd 13] the same measures were 489 nM and 86.9%.
On to `O=C(Nc1cccc2cnccc12)C(c1ccc(C(F)(F)F)cc1)N1CCc2ccccc21` (stereo not shown) [Cpd 18, 2-(Indolin-1-yl)-N-(isoquinolin-5-yl)-2-(4-(trifluoromethyl)phenyl)acetamide], for which the IC50 came to 103 nM. Under setting [1], the inhibition at 0.5 µM turned out to be 104%.
As to `O=C(Nc1cccc2cnccc12)C(c1ccc(C(F)(F)F)cc1)N1CCCc2ccccc21` (stereo not shown) [Cpd 19], it took 586 nM to reach half-maximal inhibition (IC50). The inhibition at 0.5 µM under setting [1] is 79.7%.
Consider `CC(C)(C)c1ccc(C(Nc2ccccc2)C(=O)Nc2cccc3cn[nH]c23)cc1` (stereo not shown) [Cpd 20], for which the IC50 was found to be 233 nM. Further, the inhibition at 0.5 µM under setting [1] was found to be 101%.
For `COc1ccccc1NC(C(=O)Nc1cccc2cnccc12)c1ccc(C(F)(F)F)cc1` (stereo not shown) [Cpd 21] the same measures were 287 nM and 95.3%.
For the compound `Cc1ccccc1NC(C(=O)Nc1cccc2cnccc12)c1ccc(C(F)(F)F)cc1` (stereo not shown) [Cpd 22], the IC50 was determined as 38.4 nM. For the same compound, the inhibition at 0.5 µM under setting [1] was found to be 104%.
For `Cc1cccc(C)c1NC(C(=O)Nc1cccc2cnccc12)c1ccc(C(F)(F)F)cc1` (stereo not shown) [Cpd 25] the same measures were 273 nM and 99%.
For `O=C(Nc1cccc2[nH]ncc12)C(Nc1ccccc1)c1ccc(C(F)(F)F)cc1` (stereo not shown) [Cpd 27] the same measures were 84.5 nM and 101%.
For `O=C(Nc1cccc2cn[nH]c12)C(Nc1ccccc1)c1ccc(C(F)(F)F)cc1` (stereo not shown) [Cpd 28] the same measures were 161 nM and 98.3%.
As for `O=C(Nc1cccc2cccnc12)C(Nc1ccccc1)c1ccc(C(F)(F)F)cc1` (stereo not shown) [Cpd 29], the IC50 came out at 441 nM. For the same compound, the inhibition at 0.5 µM under setting [1] turned out to be 85.1%.
For `O=C(Nc1cccc2[nH]ccc12)C(Nc1ccc(F)cc1)c1ccc(C(F)(F)F)cc1` (stereo not shown) [Cpd 34] the same measures were 226 nM and 84%.
The matching figures for `O=C(Nc1cccc2cnccc12)C(Nc1ccc(F)cc1)c1ccc(C(F)(F)F)cc1` (stereo not shown) [Cpd 35]: 73 nM and 99%.
`O=C(Nc1cccc2cnccc12)C(Nc1cccc(F)c1)c1ccc(C(F)(F)F)cc1` (stereo not shown) [Cpd 36] registered an IC50 of 119 nM. Further, the inhibition at 0.5 µM under setting [1] stood at 95%.
As for `O=C(Nc1cccc2[nH]ccc12)C(Nc1cccc(F)c1)c1ccc(C(F)(F)F)cc1` (stereo not shown) [Cpd 37], it took 217 nM to reach half-maximal inhibition (IC50). Moreover, the inhibition at 0.5 µM under setting [1] is 94%.
For `O=C(Nc1cccc2[nH]ccc12)C(Nc1ccccc1)c1ccc(Cl)cc1` (stereo not shown) [Cpd 38] the same measures were 181 nM and 84%.
The matching figures for `O=C(Nc1cccc2cnccc12)C(Nc1ccccc1)c1ccc(Cl)cc1` (stereo not shown) [Cpd 39]: 158 nM and 93%.
For `O=C(Nc1cccc2cnccc12)C(Nc1ccccc1F)c1ccc(Br)cc1` (stereo not shown) [Cpd 41] the same measures were 82 nM and 98%.
Turning to `O=C(Nc1cccc2cnccc12)C(Nc1ccccc1)c1cccc(C(F)(F)F)c1` (stereo not shown) [Cpd 42], it took 109 nM to reach half-maximal inhibition (IC50). Also, the inhibition at 0.5 µM under setting [1] is 96%.
The compound `O=C(Nc1cccc2cnccc12)C(Nc1ccccc1F)c1ccc(Cl)cc1` (stereo not shown) [Cpd 44] displayed an IC50 of 96.8 nM. Besides, under setting [1], the inhibition at 0.5 µM was found to be 98%.
`O=C(Nc1cccc2cnccc12)C(Nc1c(F)cccc1F)c1ccc(Cl)cc1` (stereo not shown) [Cpd 48]: 94 nM corresponded to half-maximal inhibition (IC50). Besides, the inhibition at 0.5 µM under setting [1] is 98%.
The matching figures for `O=C(Nc1cccc2ncccc12)C(Nc1c(F)cccc1F)c1ccc(Cl)cc1` (stereo not shown) [Cpd 49]: 92 nM and 83%.
With `O=C(Nc1cccc2cnccc12)C(Nc1ccc(F)cc1F)c1ccc(C(F)(F)F)cc1` (stereo not shown) [Cpd 50], the IC50 was determined as 115 nM. In addition, under setting [1], the inhibition at 0.5 µM was 98%.
The matching figures for `O=C(Nc1cccc2cnccc12)C(Nc1cccc(F)c1F)c1ccc(Cl)cc1` (stereo not shown) [Cpd 51]: 273 nM and 87%.
The matching figures for `O=C(Nc1cccc2ncccc12)C(Nc1cccc(F)c1F)c1ccc(Cl)cc1` (stereo not shown) [Cpd 52]: 219 nM and 80%.
Consider `O=C(Nc1cccc2cnccc12)C(Nc1cc(F)ccc1F)c1ccc(Cl)cc1` (stereo not shown) [Cpd 53], for which it took 65.3 nM to reach half-maximal inhibition (IC50). In addition, under setting [1], the inhibition at 0.2 µM was determined as 90%.
For `O=C(Nc1cccc2ncccc12)C(Nc1cc(F)ccc1F)c1ccc(Cl)cc1` (stereo not shown) [Cpd 54] the same measures were 107 nM and 77%.
Compound `O=C(Nc1cccc2cnccc12)C(Sc1ccccc1)c1ccc(C(F)(F)F)cc1` (stereo not shown) [Cpd 56, N-(Isoquinolin-5-yl)-2-(phenylthio)-2-(4-(trifluoromethyl)phenyl)acetamide] showed an IC50 of 130 nM.
